Source: patent US8288363B2, “Medicaments for anti-herpes virus treatments” (ASE & BIO, priority 2006, dated 2012)

Tests used:
HSV-1 = experiment: Anti-herpes activity, viability of infected vero cells (neutral red); assay type: cell-based, herpes simplex virus 1; details: for EC50: MOI 0.01 ID50/cell
Procedure: (§1) This method is based on the principle that living cells absorb neutral red, which is a vital stain. The optical density of the medium was measured at the maximum absorption wavelength of neutral red, that is to say 540 nm, using a spectrophotometer (SpectraCount™, microplate photometer, Packard). The optical density at 540 nm is proportional to the number of living cells in an infected culture (McLaren et al., Antiviral Research, 1983; 3: 223-234 and Langlois et al., Standardization, 1986, 14: 201-211).
(§2) The effective concentration (EC 50%), that is to say the concentration of the sulphated polysaccharide which enables infection of 50% of the cells of a culture to be inhibited, was measured for each viral strain.
(§3) The determination of the EC50 was carried out in 96-well microtitre plates in accordance with the following protocol. Vero cells are seeded at a cell density of 3.5·10^4 cells/well in 100 μl of MEM medium containing 8% FCS. For each viral suspension defined by its MOI: • the negative control column was filled with 100 μl of MEM medium with 8% FCS, • the virus control column was filled with 50 μl of viral suspension having the required MOI and with 50 μl of MEM medium with 8% FCS, • the PS3 control column was filled with 50 μl of PS3 having the desired concentration range or with 50 μl of acyclovir (Zovirax 0.05-5 μg/ml • finally, all the other columns were filled successively with 50 μl of PS3 having the required concentration range or with 50 μl of acyclovir (Zovirax 0.05-5 μg/ml) and with 50 μl of the viral suspension having the desired MOI.
(§4) The EC50 corresponding to the concentration which enables the cytopathic effect of the virus to be reduced by 50% was calculated in accordance with the following formula: […]
(§5) The anti-herpes activity of PS3 was evaluated and compared on each viral suspension of HSV-1, HSV-1R, HSV-2 and HSV-2R defined by an MOI of 0.01 ID50/cell for a cell concentration of 350,000 cells/ml, after incubation times of 48 and 72 hours.
(§6) This series of experiments was carried out applying the protocol enabling the EC50 to be determined, as described in Example 3.
(§7) The therapeutic indices (TI) of PS3, as well as three other reference products, that is to say acyclovir, dextran sulphate and phycarine, were determined in parallel for each viral strain.
(§8) The therapeutic index (TI) represents the ratio between the maximum non-toxic dose (or a dose inducing a quantified toxicity) and the dose inducing a favourable pharmacological effect.

[1] = test system: acyclovir-resistant strain HSV-1R; experiment: as above; assay type: cell-based, herpes simplex virus 1; details: for Anti-herpes activity (conclusion in words) / EC50: HSV-1R; for Anti-herpes activity (conclusion in words): 48 and 72 hours; for EC50: MOI 0.01 ID50/cell
Procedure: as §1, §2, §3, §4, §5, §6, §7, §8

[2] = test system: HSV-1, HSV-1R, HSV-2 and HSV-2R; experiment: Virucidal action: viral suspensions treated before infection of vero cells; assay type: cell-based, herpes simplex virus
Procedure: To determine whether PS3 has a virucidal effect, the procedure was as follows.
Vero cells were seeded at a cell density of 3·10^4 cells/well of a microtitre plate in 100 μl of MEM medium containing 8% FCS for 24 hours before the test.
On the day of the test, 50 μl of each of the viral suspensions identified above were treated with 50 μl of PS3 or reference product (acyclovir) having a given concentration for one hour at 37° C.
An amount of 100 μl of the mixture of this viral suspension, to which PS3 or the reference product had been added, was introduced into each well of the microtitre plate. The plate was kept at 4° C. for one hour.
It is to be noted that controls of the growth of the cells and of the viruses were run simultaneously.
The plates containing the infected cells were then placed in an oven at 37° C. for 48 or 72 hours.
The virucidal effect of PS3 was evaluated by measurement of the EC50 values determined in accordance with the method described in Example 3.

[3] = test system: HSV-1, HSV-1R, HSV-2 and HSV-2R; experiment: Action on the viral penetration; assay type: cell-based, herpes simplex virus
Procedure: To determine whether PS3 has an effect on the viral penetration, the procedure was as follows.
Vero cells were seeded at a cell density of 3.5·10^4 cells/well of a microtitre plate in 100 μl of MEM medium containing 8% FCS.
After 24 hours, the confluent cells were brought into contact with 50 μl of a viral suspension for 1 hour at 4° C.
The cell carpet was then incubated with various concentrations of PS3 (0.125-1,250 μg/ml) or reference product, in this case acyclovir ([…]), at 37° C. in order to facilitate penetration of the viruses.
After incubation times of 15, 30 and 60 minutes, the corresponding cells were washed with 100 μl of PBS and then treated for 1 minute with 0.5 mg/ml of proteinase K (Sigma) in solution in PBS in order to remove all the extracellular viruses which had not been adsorbed.
This treatment was stopped by addition of 1 mM of phenylmethylsulphonyl fluoride (Sigma) in solution in PBS containing 3% FCS.
The cells were then washed with 100 μl of PBS per well and cultured again at 37° C. in 200 μl of MEM medium supplemented with 8% FCS.
Controls of the growth of the cells and of the viruses were run simultaneously. After incubation for 48 hours, the effect of PS3 and of acyclovir on the penetration of the virus was measured using the neutral red method.

[4] = non-resistant strains HSV-1 and HSV-2

sulphated laminarin [PS3]
EC50 (HSV-1; HSV-1, after 48 hours of treatment): less than 2 μg/ml
EC50 (HSV-1; HSV-1, after 72 hours of treatment): less than 5 μg/ml
Therapeutic index HSV-1 (HSV-1; incubation time 48 hours): >1,761
Therapeutic index HSV-1 (HSV-1; incubation time 72 hours): >651
Anti-herpes activity (conclusion in words) [1]: more effective than acyclovir
EC50 ([1]; after 48 hours of treatment): less than 2 μg/ml
EC50 ([1]; after 72 hours of treatment): less than 5 μg/ml
Therapeutic index HSV-1R ([1]; incubation time 48 hours): >1,157
Therapeutic index HSV-1R ([1]; incubation time 72 hours): >530
Virucidal effect ([2]; strains HSV-1, HSV-2, HSV-1R, HSV-2R, viral suspension treated one hour at 37° C.): no virucidal effect and no
Effect on penetration ([3]; strains HSV-1, HSV-2, HSV-1R, HSV-2R): no antiviral activity on penetration and no

Nc1nc2c(ncn2COCCO)c(=O)[nH]1 [Acyclovir, acyclovir, reference compound]
Therapeutic index HSV-1 (HSV-1; incubation time 48 hours): >4,902
Therapeutic index HSV-1 (HSV-1; incubation time 72 hours): >1,492
Anti-herpes activity (conclusion in words) [1]: not effective
Therapeutic index HSV-1R ([1]; incubation time 48 hours): 0
Therapeutic index HSV-1R ([1]; incubation time 72 hours): 0
Virucidal effect [2, 4]: no
Effect on penetration [3, 4]: no
